Data as given in ChEMBL document CHEMBL1201861, “Genomics of Drug Sensitity in Cancer screening data, Wellcome Trust Sanger Institute”.

Assays:
Assay in all cases: cells
Conditions in all cases: Homo sapiens
A-427 = assay type: functional, cell-based;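 further: growth inhibition of human A-427 cells, read out by a cell viability assay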
Description: SANGER: Inhibition of human A427 cell growth in a cell viability assay.

SKG-IIIa = assay type: functional, cell-based;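 further: cell growth inhibition, read out with a cell viability assay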
Description: SANGER: Inhibition of human SKG-IIIa cell growth in a cell viability assay.

BCPAP = assay type: functional, cell-based;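 further: growth inhibition of BCPAP cells, read out in a cell viability assay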
Description: SANGER: Inhibition of human BCPAP cell growth in a cell viability assay.

WM-115 = assay type: functional, cell-based
Description: SANGER: Inhibition of human WM-115 cell growth in a cell viability assay.

COLO-679 = assay type: functional, cell-based
Description: SANGER: Inhibition of human COLO-679 cell growth in a cell viability assay.

FaDu = assay type: functional, cell-based;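 further: cell viability readout of growth inhibition in FaDu cells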
Description: SANGER: Inhibition of human FADU cell growth in a cell viability assay.

P12-Ichikawa = assay type: functional, cell-based
KU-19-19 = assay type: functional, cell-based
Description: SANGER: Inhibition of human KU-19-19 cell growth in a cell viability assay.

HCC 2998 = assay type: functional, cell-based;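 further: growth inhibition of human HCC2998 cells, measured with a cell viability read-out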
Description: SANGER: Inhibition of human HCC2998 cell growth in a cell viability assay.

MEL-HO = assay type: functional, cell-based
Description: SANGER: Inhibition of human MEL-HO cell growth in a cell viability assay.

SW13 = assay type: functional, cell-based;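 further: IC50 is inhibition of SW13 cell growth, read out with a cell viability assay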
Description: SANGER: Inhibition of human SW13 cell growth in a cell viability assay.

EFO-21 = assay type: functional, cell-based;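 further: growth inhibition of EFO-21 cells measured with a viability assay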
Description: SANGER: Inhibition of human EFO-21 cell growth in a cell viability assay.

ACHN = assay type: functional, cell-based;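 further: cell viability read-out used to gauge how strongly growth of human ACHN cells is suppressed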
Description: SANGER: Inhibition of human ACHN cell growth in a cell viability assay.

IGR-1 = assay type: functional, cell-based;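 further: growth inhibition of human IGR-1 cells, read out with a cell viability assay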
Description: SANGER: Inhibition of human IGR-1 cell growth in a cell viability assay.

CAL-120 = assay type: functional, cell-based;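 further: cell growth inhibition, read out as cell viability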
Description: SANGER: Inhibition of human CAL-120 cell growth in a cell viability assay.

CHL-1 = assay type: functional, cell-based;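 further: cell growth inhibition, read out with a cell viability assay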
Description: SANGER: Inhibition of human CHL-1 cell growth in a cell viability assay.

RCM-1 = assay type: functional, cell-based;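 further: growth inhibition of the RCM-1 line, determined with a cell viability readout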
Description: SANGER: Inhibition of human RCM-1 cell growth in a cell viability assay.

VM-CUB-1 = assay type: functional, cell-based;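 further: cell viability assay measuring growth inhibition of the human VM-CUB-1 cell line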
Description: SANGER: Inhibition of human VM-CUB-1 cell growth in a cell viability assay.

NCI-H727 = assay type: functional, cell-based;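 further: growth inhibition of human NCI-H727 cells, read out with a cell viability assay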
Description: SANGER: Inhibition of human NCI-H727 cell growth in a cell viability assay.

PC-3 = assay type: functional, cell-based;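 further: cell viability assay measuring growth inhibition of PC-3 cells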
Description: SANGER: Inhibition of human PC-3 cell growth in a cell viability assay.

KYSE-140 = assay type: functional, cell-based;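 further: cell viability assay measuring growth inhibition in human KYSE-140 cells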
Description: SANGER: Inhibition of human KYSE-140 cell growth in a cell viability assay.

OVCAR-5 = assay type: functional, cell-based;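 further: growth inhibition of human OVCAR-5 cells, read out with a cell viability assay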
Description: SANGER: Inhibition of human OVCAR-5 cell growth in a cell viability assay.

NCI-H2170 = assay type: functional, cell-based;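 further: cell viability assay measuring growth inhibition of human NCI-H2170 cancer cells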
Description: SANGER: Inhibition of human NCI-H2170 cell growth in a cell viability assay.

SK-MEL-30 = assay type: functional, cell-based;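 further: growth inhibition of SK-MEL-30 cells, determined with a cell viability assay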
Description: SANGER: Inhibition of human SK-MEL-30 cell growth in a cell viability assay.

NCI-H630 = assay type: functional, cell-based;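 further: growth inhibition of NCI-H630 cells, read out with a cell viability assay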
Description: SANGER: Inhibition of human NCI-H630 cell growth in a cell viability assay.

MCF7 = assay type: functional, cell-based;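 further: growth inhibition of human MCF7 cells, read out with a cell viability assay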
Description: SANGER: Inhibition of human MCF7 cell growth in a cell viability assay.

BHY = assay type: functional, cell-based;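 further: cell growth inhibition read out by a viability assay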
Description: SANGER: Inhibition of human BHY cell growth in a cell viability assay.

SK-MEL-28 = assay type: functional, cell-based;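 further: growth inhibition of human SK-MEL-28 cells, read out with a cell viability assay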
Description: SANGER: Inhibition of human SK-MEL-28 cell growth in a cell viability assay.

HuCCT-1 = assay type: functional, cell-based, HuCCT1;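 further: growth inhibition of HuCCT-1 cells, read out by a cell viability assay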
Description: SANGER: Inhibition of human HuCCT1 cell growth in a cell viability assay.

NCI-H441 = assay type: functional, cell-based;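 further: growth inhibition of NCI-H441 cells, read out with a cell viability assay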
Description: SANGER: Inhibition of human NCI-H441 cell growth in a cell viability assay.

NB7 = assay type: functional, cell-based;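 further: growth inhibition of NB7 cells, read out with a cell viability assay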
Description: SANGER: Inhibition of human NB7 cell growth in a cell viability assay.

Panc1005 = assay type: functional, cell-based;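 further: growth inhibition of human PANC-10-05 cells, measured by a cell viability assay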
Description: SANGER: Inhibition of human PANC-10-05 cell growth in a cell viability assay.

CAKI-1 = assay type: functional, cell-based;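 further: growth inhibition of CAKI-1 cells, measured by a cell viability assay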
Description: SANGER: Inhibition of human CAKI-1 cell growth in a cell viability assay.

M14 = assay type: functional, cell-based;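 further: growth inhibition of M14 cells, read out with a cell viability assay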
Description: SANGER: Inhibition of human M14 cell growth in a cell viability assay.

SW1417 = assay type: functional, cell-based;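 further: growth inhibition of human SW1417 cells, read out with a cell viability assay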
Description: SANGER: Inhibition of human SW1417 cell growth in a cell viability assay.

786-0 = assay type: functional, cell-based
Description: SANGER: Inhibition of human 786-0 cell growth in a cell viability assay.

LK-2 = assay type: functional, cell-based;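 further: growth inhibition of LK-2 cells, read out with a viability assay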
Description: SANGER: Inhibition of human LK-2 cell growth in a cell viability assay.

HCC1937 = assay type: functional, cell-based;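 further: growth inhibition measured with a cell viability read-out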
Description: SANGER: Inhibition of human HCC1937 cell growth in a cell viability assay.

PANC-03-27 = assay type: functional, cell-based
Description: SANGER: Inhibition of human PANC-03-27 cell growth in a cell viability assay.

NCI-H2342 = assay type: functional, cell-based;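 further: growth inhibition of the cancer cell line, determined with a cell viability assay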
Description: SANGER: Inhibition of human NCI-H2342 cell growth in a cell viability assay.

Daoy = assay type: functional, cell-based;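 further: daoy cell growth inhibition, read out as cell viability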
Description: SANGER: Inhibition of human Daoy cell growth in a cell viability assay.

HuP-T4 = assay type: functional, cell-based;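 further: cell viability assay measuring how much HuP-T4 cell growth is inhibited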
Description: SANGER: Inhibition of human HuP-T4 cell growth in a cell viability assay.

COLO-741 = assay type: functional, cell-based
Description: SANGER: Inhibition of human COLO-741 cell growth in a cell viability assay.

CAPAN-1 = assay type: functional, cell-based;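 further: growth suppression of CAPAN-1 cells, read out by a cell viability assay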
Description: SANGER: Inhibition of human CAPAN-1 cell growth in a cell viability assay.

BPH-1 = assay type: functional, cell-based;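 further: cell viability assay measuring growth inhibition of human BPH-1 cells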
Description: SANGER: Inhibition of human BPH-1 cell growth in a cell viability assay.

Huh-7 = assay type: functional, cell-based;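 further: HuH-7 cell growth inhibition, read out with a cell viability assay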
Description: SANGER: Inhibition of human HuH-7 cell growth in a cell viability assay.

COR-L105 = assay type: functional, cell-based;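 further: cell growth inhibition determined with a viability assay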
Description: SANGER: Inhibition of human COR-L105 cell growth in a cell viability assay.

GMS-10 = assay type: functional, cell-based;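 further: growth inhibition of GMS-10 cells, read out as cell viability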
Description: SANGER: Inhibition of human GMS-10 cell growth in a cell viability assay.

T84 = assay type: functional, cell-based;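 further: growth inhibition measured with a cell viability readout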
Description: SANGER: Inhibition of human T84 cell growth in a cell viability assay.

HCC1419 = assay type: functional, cell-based;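 further: growth inhibition of human HCC1419 cells, read out as cell viability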
Description: SANGER: Inhibition of human HCC1419 cell growth in a cell viability assay.

DBTRG-05MG = assay type: functional, cell-based;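 further: cell viability assay measuring growth inhibition of human DBTRG-05MG cells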
Description: SANGER: Inhibition of human DBTRG-05MG cell growth in a cell viability assay.

SMILES: C[C@]1(c2nc3c(C(N)=O)cccc3[nH]2)CCCN1 [VELIPARIB]
- IC50 (A-427): > 5000 nM
- IC50 (SKG-IIIa): > 5000 nM
- IC50 (BCPAP): > 5000 nM
- IC50 (WM-115): > 5000 nM
- IC50 (COLO-679): > 5000 nM
- IC50 (FaDu): > 5000 nM
- IC50 (P12-Ichikawa): > 5000 nM
- IC50 (KU-19-19): > 5000 nM
- IC50 (HCC 2998): > 5000 nM
- IC50 (MEL-HO): > 5000 nM
- IC50 (SW13): > 5000 nM
- IC50 (EFO-21): > 5000 nM
- IC50 (ACHN): > 5000 nM
- IC50 (IGR-1): > 5000 nM
- IC50 (CAL-120): > 5000 nM
- IC50 (CHL-1): > 5000 nM
- IC50 (RCM-1): > 5000 nM
- IC50 (VM-CUB-1): > 5000 nM
- IC50 (NCI-H727): > 5000 nM
- IC50 (PC-3): > 5000 nM
- IC50 (KYSE-140): > 5000 nM
- IC50 (OVCAR-5): > 5000 nM
- IC50 (NCI-H2170): > 5000 nM
- IC50 (SK-MEL-30): > 5000 nM
- IC50 (NCI-H630): > 5000 nM
- IC50 (MCF7): > 5000 nM
- IC50 (BHY): > 5000 nM
- IC50 (SK-MEL-28): > 5000 nM
- IC50 (HuCCT-1): > 5000 nM
- IC50 (NCI-H441): > 5000 nM
- IC50 (NB7): > 5000 nM
- IC50 (Panc1005): > 5000 nM
- IC50 (CAKI-1): > 5000 nM
- IC50 (M14): > 5000 nM
- IC50 (SW1417): > 5000 nM
- IC50 (786-0): > 5000 nM
- IC50 (LK-2): > 5000 nM
- IC50 (HCC1937): > 5000 nM
- IC50 (PANC-03-27): > 5000 nM
- IC50 (NCI-H2342): > 5000 nM
- IC50 (Daoy): > 5000 nM
- IC50 (HuP-T4): > 5000 nM
- IC50 (COLO-741): > 5000 nM
- IC50 (CAPAN-1): > 5000 nM
- IC50 (BPH-1): > 5000 nM
- IC50 (Huh-7): > 5000 nM
- IC50 (COR-L105): > 5000 nM
- IC50 (GMS-10): > 5000 nM
- IC50 (T84): > 5000 nM
- IC50 (HCC1419): > 5000 nM
- IC50 (DBTRG-05MG): > 5000 nM

SMILES: CC[C@]1(O)C[C@@H]2CN(CCc3c([nH]c4ccccc34)[C@@](C(=O)OC)(c3cc4c(cc3OC)N(C)[C@H]3[C@@](O)(C(=O)OC)[C@H](OC(C)=O)[C@]5(CC)C=CCN6CC[C@]43[C@@H]65)C2)C1 [VINBLASTINE]
- IC50 (A-427): 12.5 nM
- IC50 (SKG-IIIa): 17.2 nM
- IC50 (BCPAP): 2.33 nM
- IC50 (WM-115): 10.2 nM
- IC50 (COLO-679): > 100 nM
- IC50 (FaDu): 20 nM
- IC50 (P12-Ichikawa): 1.7 nM
- IC50 (KU-19-19): 43.7 nM
- IC50 (HCC 2998): 19.8 nM
- IC50 (MEL-HO): 53.9 nM
- IC50 (SW13): 5.49 nM
- IC50 (EFO-21): 44 nM
- IC50 (ACHN): 59 nM
- IC50 (IGR-1): 2.08 nM
- IC50 (CAL-120): 87.3 nM
- IC50 (CHL-1): 12 nM
- IC50 (RCM-1): > 100 nM
- IC50 (VM-CUB-1): 4.28 nM
- IC50 (NCI-H727): > 100 nM
- IC50 (PC-3): 33.4 nM
- IC50 (KYSE-140): 44.9 nM
- IC50 (OVCAR-5): 13.6 nM
- IC50 (NCI-H2170): 33.4 nM
- IC50 (SK-MEL-30): > 100 nM
- IC50 (NCI-H630): > 100 nM
- IC50 (MCF7): 31.6 nM
- IC50 (BHY): 15.3 nM
- IC50 (SK-MEL-28): 17 nM
- IC50 (HuCCT-1): 17.3 nM
- IC50 (NCI-H441): > 100 nM
- IC50 (NB7): > 100 nM
- IC50 (Panc1005): 42.8 nM
- IC50 (CAKI-1): 24.6 nM
- IC50 (M14): 3.19 nM
- IC50 (SW1417): > 100 nM
- IC50 (786-0): 15.6 nM
- IC50 (LK-2): 7.5 nM
- IC50 (HCC1937): > 100 nM
- IC50 (PANC-03-27): 5.47 nM
- IC50 (NCI-H2342): > 100 nM
- IC50 (Daoy): 3.1 nM
- IC50 (HuP-T4): 43.2 nM
- IC50 (COLO-741): 2.14 nM
- IC50 (CAPAN-1): 52.3 nM
- IC50 (BPH-1): 3.26 nM
- IC50 (Huh-7): 87.7 nM
- IC50 (COR-L105): 65.7 nM
- IC50 (GMS-10): 11.3 nM
- IC50 (T84): > 100 nM
- IC50 (HCC1419): 57.2 nM
- IC50 (DBTRG-05MG): > 100 nM
